# Assay results published in ChEMBL document CHEMBL3885861, “Open TG-GATES”.
# Species on record: Rattus norvegicus
# Assay: Open TG-GATES - Regimen: Daily Repeat
# Assay type: toxicity, organism-based, Sprague-Dawley
# Parameters: regimen Daily Repeat, gender Male, age 6 weeks
# Conditions: in vivo, po, 100 mg/kg, route gavage, dose level Low; for APTT / Bas / Eos / Fbg / Hb / Ht / Lym / MCH / MCHC / MCV / Mono / Neu / PT / Plat / RBC / Ret / WBC: tissue Blood
# [1] = 72 h, tissue Kidney, time 3 day
# [2] = 72 h, tissue Plasma, time 3 day
smiles,measurement,setting,value
O=C(OC[C@H]1O[C@@H](OC(=O)c2cc(O)c(O)c(OC(=O)c3cc(O)c(O)c(O)c3)c2)[C@H](OC(=O)c2cc(O)c(O)c(OC(=O)c3cc(O)c(O)c(O)c3)c2)[C@@H](OC(=O)c2cc(O)c(O)c(OC(=O)c3cc(O)c(O)c(O)c3)c2)[C@@H]1OC(=O)c1cc(O)c(O)c(OC(=O)c2cc(O)c(O)c(O)c2)c1)c1cc(O)c(O)c(OC(=O)c2cc(O)c(O)c(O)c2)c1 [TANNIC ACID],TERMINAL_BW,"72 h, time 3 day",221.9 g
same,APTT,"72 h, time 3 day",16.9 s
same,Bas,"72 h, time 3 day",0%
same,Eos,"72 h, time 3 day",1%
same,Fbg,"72 h, time 3 day",234.4 mg/dL
same,Hb,"72 h, time 3 day",13.2 g/dL
same,Ht,"72 h, time 3 day",39.2%
same,Lym,"72 h, time 3 day",72.6%
same,MCH,"72 h, time 3 day",22.3 pg
same,MCHC,"72 h, time 3 day",33.6%
same,MCV,"72 h, time 3 day",66.4 fL
same,Mono,"72 h, time 3 day",12.2%
same,Neu,"72 h, time 3 day",14.4%
same,PT,"72 h, time 3 day",11.5 s
same,Plat,"72 h, time 3 day",111.4 x10_4/uL
same,RBC,"72 h, time 3 day",590.2 x10_4/ul
same,Ret,"72 h, time 3 day",8.8%
same,WBC,"72 h, time 3 day",90.6 x10_2/uL
same,KIDNEY_L,[1],1 g
same,KIDNEY_R,[1],1 g
same,KIDNEY_TOTAL,[1],2 g
same,LIVER,"72 h, tissue Liver, time 3 day",11.1 g
same,A/G,[2],2.3
same,ALP,[2],864 IU/L
same,ALT,[2],33.4 IU/L
same,AST,[2],61.4 IU/L
same,BUN,[2],18.8 mg/dL
same,CRE,[2],0.5 mg/dL
same,Ca,[2],11 mg/dL
same,Cl,[2],104.2 meq/L
same,DBIL,[2],0 mg/dL
same,GLC,[2],204.8 mg/dL
same,IP,[2],8.6 mg/dL
same,K,[2],4.8 meq/L
same,LDH,[2],68.4 IU/L
same,Na,[2],139.8 meq/L
same,PL,[2],154.6 mg/dL
same,RALB,[2],4 g/dL
same,TBIL,[2],0.3 mg/dL
same,TC,[2],84.6 mg/dL
same,TG,[2],100.8 mg/dL
same,TP,[2],5.7 g/dL
same,gamma-GTP,[2],1.2 IU/L
same,TERMINAL_BW,"[…], time 7 day",249.2 g
same,TERMINAL_BW,"[…], time 14 day",296.1 g
same,TERMINAL_BW,"[…], time 28 day",380.6 g
same,APTT,"[…], time 7 day",16.3 s
same,Bas,"[…], time 7 day",0%
same,Eos,"[…], time 7 day",1%
same,Fbg,"[…], time 7 day",221.6 mg/dL
same,Hb,"[…], time 7 day",13.4 g/dL
same,Ht,"[…], time 7 day",40.3%
same,Lym,"[…], time 7 day",74.8%
same,MCH,"[…], time 7 day",21 pg
same,MCHC,"[…], time 7 day",33.3%
same,MCV,"[…], time 7 day",63.3 fL
same,Mono,"[…], time 7 day",7.4%
same,Neu,"[…], time 7 day",16.8%
same,PT,"[…], time 7 day",11 s
same,Plat,"[…], time 7 day",122.5 x10_4/uL
same,RBC,"[…], time 7 day",638.6 x10_4/ul
same,Ret,"[…], time 7 day",6.5%
same,WBC,"[…], time 7 day",119 x10_2/uL
same,APTT,"[…], time 14 day",16.7 s
same,Bas,"[…], time 14 day",0%
same,Eos,"[…], time 14 day",1%
same,Fbg,"[…], time 14 day",261 mg/dL
same,Hb,"[…], time 14 day",14.3 g/dL
same,Ht,"[…], time 14 day",42.9%
same,Lym,"[…], time 14 day",74.5%
same,MCH,"[…], time 14 day",20.9 pg
same,MCHC,"[…], time 14 day",33.4%
same,MCV,"[…], time 14 day",62.6 fL
same,Mono,"[…], time 14 day",6.8%
same,Neu,"[…], time 14 day",18%
same,PT,"[…], time 14 day",11.5 s
same,Plat,"[…], time 14 day",129.4 x10_4/uL
same,RBC,"[…], time 14 day",685.8 x10_4/ul
same,Ret,"[…], time 14 day",4.6%
same,WBC,"[…], time 14 day",136 x10_2/uL
same,APTT,"[…], time 28 day",15.9 s
same,Bas,"[…], time 28 day",0%
same,Eos,"[…], time 28 day",1.2%
same,Fbg,"[…], time 28 day",230 mg/dL
same,Hb,"[…], time 28 day",15.1 g/dL
same,Ht,"[…], time 28 day",45%
